Structures can show the parent of a compound that is named as a salt.
Target: human PDE1B enzyme (Homo sapiens (Human), UniProt Q01064)
Assay: IMAP TR-FRET PDE1B enzymatic assay
Format: biochemical
Settings: negative log of half-maximal molar inhibitory concentration, 200 nM FAM-cAMP, values given as bins; for IC50: read-out: PDE1b (pIC50) (converted)
Method: PDE1B inhibition was determined by an IMAP TR-FRET assay. The IMAP TR-FRET PDE assay was optimized for concentration of enzyme, Calmodulin, cAMP or cGMP substrate, DMSO tolerance, and incubation time.
Into each well of a solid white 1536 well plate (Corning) was dispensed 250 pg full-length recombinant NH-terminal GST tagged human PDE1B enzyme (BPS Bioscience Cat #60011, San Diego, CA) in 2.5 μL IMAP BSA reaction buffer (Molecular Devices, Sunnyvale, CA) containing 10 U/ml Calmodulin and 2.5 mM CaCl2) (Sigma Aldrich.) After a brief centrifugation, 30 nL of compound was added by transfer from 1 mM stock in DMSO using a Kalypsys 1536 Pintool. Plates were incubated for 5 minutes at room temperature before dispensing 1.5 μL of 533 nM 5-carboxy fluorescein (FAM)-labeled cAMP (Molecular Devices, Sunnyvale, CA) for a final concentration of 200 nM. After a brief centrifugation, the plates were incubated for 30 minutes at room temperature. The assay was terminated by adding 5 μL IMAP binding reagent/Tb complex (Molecular Devices, Sunnyvale, CA) to each well.
Plates were incubated for 1 hour at room temperature and were read on a Viewlux multimode plate reader (Perkin Elmer). The instrument was set to excite using the DUG11 filter and measure using 490/10 nm and 520/10 nm filters. Ratios of acceptor and donor were then calculated.
For IC50 calculations, the values of % efficacy versus a series of compound concentrations were then plotted using non-linear regression analysis of sigmoidal dose-response curves generated with the equation Y=[B+(T−B)]/[1+10((Log EC50−X)×Hill Slope)], where Y=percent activity, B=minimum percent efficacy, T=maximum percent efficacy, X=logarithm of compound and Hill Slope=slope factor or Hill coefficient. The IC50 value was determined by the concentration causing a half-maximal percent efficacy.

Row | SMILES | IC50 [nM] | PDE1b (pIC50)
1 | Cc1oc2ncnc(NC3(C)CC3)c2c1C(=O)N1CC[C@@H]2CCCC[C@H]2C1 (stereo in doubt) [Example 271, 5-[(4aS,8aR)-Decahydroisoquinoline-2-carbonyl]-6-methyl-N-(1-methylcyclopropyl)furo[2,3-d]pyrimidin-4-amine] | 10 to 100 | 
2 | COc1ccc(C(C)NC(=O)c2c(C)oc3ncnc(NC4(C)CC4)c23)cc1 (stereo in doubt) [Example 480, N-[(1S)-1-(4-Methoxyphenyl)ethyl]-6-methyl-4-[(1-methylcyclopropyl)amino]furo[2,3-d]pyrimidine-5-carboxamide] | 10 to 100 | 
3 | COc1ccccc1C(C)NC(=O)c1c(C)oc2ncnc(NC3(C)CC3)c12 (stereo in doubt) [Example 482, N-[(1S)-1-(2-Methoxyphenyl)ethyl]-6-methyl-4-[(1-methylcyclopropyl)amino]furo[2,3-d]pyrimidine-5-carboxamide] | 10 to 100 | 
4 | Cc1oc2ncnc(NC3(C)CC3)c2c1C(=O)NC(C)c1ccc(F)cc1 (stereo in doubt) [Example 484, N-[(1R)-1-(4-Fluorophenyl)ethyl]-6-methyl-4-[(1-methylcyclopropyl)amino]furo[2,3-d]pyrimidine-5-carboxamide] | 10 to 100 | 
5 | Cc1oc2ncnc(NC3(C)CC3)c2c1C(=O)NC(C)c1ncc(F)cn1 (stereo in doubt) [Example 518, N-[(1S)-1-(5-Fluoropyrimidin-2-yl)ethyl]-6-methyl-4-[(1-methylcyclopropyl)amino]furo[2,3-d]pyrimidine-5-carboxamide] | 100 to 1000 | 
6 | COc1ccc(C(C)NC(=O)c2c(C)oc3ncnc(NC4(C)CC4)c23)cc1OC (stereo in doubt) [Example 556, N-[(1R)-1-(3,4-Dimethoxyphenyl)ethyl]-6-methyl-4-[(1-methylcyclopropyl)amino]furo[2,3-d]pyrimidine-5-carboxamide] |  | >8
7 | COc1ccc(C(C)NC(=O)c2c(C)oc3ncnc(NC4(C)CC4)c23)cc1 (stereo in doubt) [Example 560, N-[(1R)-1-(4-Methoxyphenyl)ethyl]-6-methyl-4-[(1-methylcyclopropyl)amino]furo[2,3-d]pyrimidine-5-carboxamide] |  | >8
8 | Cc1oc2ncnc(NC3(C)CC3)c2c1C(=O)NC(C)c1ncc(F)cn1 (stereo in doubt) [Example 615, N-[(1R)-1-(5-Fluoropyrimidin-2-yl)ethyl]-6-methyl-4-[(1-methylcyclopropyl)amino]furo[2,3-d]pyrimidine-5-carboxamide] | 10 to 100 | 
9 | Cc1oc2ncnc(NC3(C)CC3)c2c1C(=O)N1CCN(c2ccccc2)CC1 [Example 1, (6-Methyl-4-((1-methylcyclopropyl)amino)furo[2,3-d]pyrimidin-5-yl)(4-phenylpiperazin-1-yl)methanone] |  | >8
10 | Cc1oc2ncnc(NC3(C)CC3)c2c1C(=O)N1CCc2nc(C3CC3)ncc2C1 [Example 2, (2-Cyclopropyl-7,8-dihydropyrido[4,3-d]pyrimidin-6(5H)-yl)(6-methyl-4-((1-methylcyclopropyl)amino)furo[2,3-d]pyrimidin-5-yl)methanone] | 10 to 100 | 
11 | Cc1oc2ncnc(NC3(C)CC3)c2c1C(=O)NC1(CF)CC1 [Example 3, N-(1-(fluoromethyl)cyclopropyl)-6-methyl-4-((1-methylcyclopropyl)amino)furo[2,3-d]pyrimidine-5-carboxamide] | 10 to 100 | 
12 | COc1ncnc2c1CCN(C(=O)c1c(C)oc3ncnc(NC4(C)CC4)c13)C2 [Example 4, (4-Methoxy-5,8-dihydropyrido[3,4-d]pyrimidin-7(6H)-yl)(6-methyl-4-((1-methylcyclopropyl)amino)furo[2,3-d]pyrimidin-5-yl)methanone] | 10 to 100 | 
13 | Cc1oc2ncnc(NC3(C)CC3)c2c1C(=O)N1CCc2c(F)ncnc2C1 [Example 5, (4-Fluoro-5,8-dihydropyrido[3,4-d]pyrimidin-7(6H)-yl)(6-methyl-4-((1-methylcyclopropyl)amino)furo[2,3-d]pyrimidin-5-yl)methanone] | 10 to 100 | 
14 | Cc1oc2ncnc(NC3(C)CC3)c2c1C(=O)N1CCc2c(Cl)ncnc2C1 [Example 6, 5-{4-chloro-5H,6H,7H,8H-pyrido[3,4-d]pyrimidine-7-carbonyl}-6-methyl-N-(1-methylcyclopropyl)furo[2,3-d]pyrimidin-4-amine] | 10 to 100 | 
15 | Cc1oc2ncnc(NC3(C)CC3)c2c1C(=O)N1CCc2c(ncnc2NCCF)C1 [Example 7, 5-{4-[(2-Fluoroethyl)amino]-5H,6H,7H,8H-pyrido[3,4-d]pyrimidine-7-carbonyl}-6-methyl-N-(1-methylcyclopropyl)furo[2,3-d]pyrimidin-4-amine trifluoroacetate] | 10 to 100 | 
16 | Cc1oc2ncnc(NC3(C)CC3)c2c1C(=O)NCc1cnc(Cl)cn1 [Example 8, N-((5-Chloropyrazin-2-yl)methyl)-6-methyl-4-((1-methylcyclopropyl)amino)furo[2,3-d]pyrimidine-5-carboxamide] | 10 to 100 | 
17 | Cc1oc2ncnc(NC3(C)CC3)c2c1C(=O)NCc1cnc(F)cn1 [Example 9, N-((5-Fluoropyrazin-2-yl)methyl)-6-methyl-4-((1-methylcyclopropyl)amino)furo[2,3-d]pyrimidine-5-carboxamide] | 10 to 100 | 
18 | Cc1oc2ncnc(NC3(C)CC3)c2c1C(=O)NCc1ccc(O)cn1 [Example 10, N-[(5-Hydroxypyridin-2-yl)methyl]-6-methyl-4-[(1-methylcyclopropyl)amino]furo[2,3-d]pyrimidin-5-carboxamide] | 10 to 100 | 
19 | Cc1oc2ncnc(NC3(C)CC3)c2c1C(=O)NCc1ccc(OCF)cn1 [Example 11, N-((5-(Fluoromethoxy)pyridin-2-yl)methyl)-6-methyl-4-((1-methylcyclopropyl)amino)furo[2,3-d]pyrimidin-5-carboxamide] |  | >8
20 | Cc1oc2ncnc(NC3(C)CC3)c2c1C(=O)N1CC=C(c2cnc(C#N)c(F)c2)CC1 [Example 12, 3-Fluoro-5-(1-{6-methyl-4-[(1-methylcyclopropyl)amino]furo[2,3-d]pyrimidine-5-carbonyl}-1,2,3,6-tetrahydropyridin-4-yl)pyridine-2-carbonitrile] |  | >8
21 | COc1ncc(C2=CCN(C(=O)c3c(C)oc4ncnc(NC5(C)CC5)c34)CC2)cc1F [Example 13, 5-[4-(5-Fluoro-6-methoxypyridin-3-yl)-1,2,3,6-tetrahydropyridine-1-carbonyl]-6-methyl-N-(1-methylcyclopropyl)furo[2,3-d]pyrimidin-4-amine] |  | >8
22 | COc1ncc(C2CCN(C(=O)c3c(C)oc4ncnc(NC5(C)CC5)c34)CC2)cc1F [Example 14, 5-[4-(5-Fluoro-6-methoxypyridin-3-yl)piperidine-1-carbonyl]-6-methyl-N-(1-methylcyclopropyl)furo[2,3-d]pyrimidin-4-amine] |  | >8
23 | Cc1oc2ncnc(NC3(C)CC3)c2c1C(=O)N1CC=C(c2ncc(F)cn2)CC1 [Example 15, 5-[4-(5-Fluoropyrimidin-2-yl)-1,2,3,6-tetrahydropyridine-1-carbonyl]-6-methyl-N-(1-methylcyclopropyl)furo[2,3-d]pyrimidin-4-amine] | 10 to 100 | 
24 | Cc1oc2ncnc(NC3(C)CC3)c2c1C(=O)N1CCc2c(ncn(CF)c2=O)C1 [Example 16, 3-(Fluoromethyl)-7-{6-methyl-4-[(1-methylcyclopropyl)amino]furo[2,3-d]pyrimidine-5-carbonyl}-3H,4H,5H,6H,7H,8H-pyrido[3,4-d]pyrimidin-4-one] | 10 to 100 | 
25 | Cc1oc2ncnc(NC3(C)CC3)c2c1C(=O)N1CCc2c(ncnc2OCF)C1 [Example 17, 5-[4-(fluoromethoxy)-5H,6H,7H,8H-pyrido[3,4-d]pyrimidine-7-carbonyl]-6-methyl-N-(1-methylcyclopropyl)furo[2,3-d]pyrimidin-4-amine] | 10 to 100 | 
26 | Cc1oc2ncnc(NC3(C)CC3)c2c1C(=O)N1CCc2c(ncnc2N2CC[C@@H](F)C2)C1 [Example 18, 5-{4-[(3R)-3-Fluoropyrrolidin-1-yl]-5H,6H,7H,8H-pyrido[3,4-d]pyrimidine-7-carbonyl}-6-methyl-N-(1-methylcyclopropyl)furo[2,3-d]pyrimidin-4-amine] | 10 to 100 | 
27 | Cc1oc2ncnc(NC3(C)CC3)c2c1C(=O)N1CCc2c(O)ccnc2C1 [Example 19, 7-{6-methyl-4-[(1-methylcyclopropyl)amino]furo[2,3-d]pyrimidine-5-carbonyl}-5,6,7,8-tetrahydro-1,7-naphthyridin-4-ol] | 100 to 1000 | 
28 | Cc1oc2ncnc(NC3(C)CC3)c2c1C(=O)N1CCc2c(OCCF)ccnc2C1 [Example 20, 5-[4-(2-Fluoroethoxy)-5,6,7,8-tetrahydro-1,7-naphthyridine-7-carbonyl]-6-methyl-N-(1-methylcyclopropyl)furo[2,3-d]pyrimidin-4-amine trifluoroacetate] |  | >8

Source: patent US20250145633A1, “SUBSTITUTED FURANOPYRIMIDINE COMPOUNDS AS PDE1 INHIBITORS” (Dart NeuroScience, LLC, priority 2017, published 2025)
